Data from patent publication US20020055174A1, “Complex for transferring an anionic substance of interest into a cell” (priority 2000, published 2002).
“Also recorded” adds a separate entry of the source. Bridge positions count the residues as written; N and C are the ends. Ends that are not written are not given here.

Experiments:
[1] = Liposome leakage assay, POPC/cholesterol 3:2 liposomes; conditions: POPC/chol 3:2 liposomes
Method: Increasing amounts of the indicated peptides were incubated with POPC/Cholesterol (3:2 mol/mol) liposomes for 30 min at RT. Emitted fluorescence was plotted against peptide concentration. […] B) Liposome leakage activity with complexes of ppTG1 and the plasmid pTG11236 at pH7.
1-Palmitoyl-2-Oleoyl-phosphatidylcholine (POPC) liposomes were prepared by the repeated freeze-thaw method followed by extrusion (Olson et al., 1979, Biochim. Biophys. Acta 557, 19-23). Ten μ-moles of POPC in chloroform were placed in a glass tube and solvent was evaporated under reduced pressure using a Labconco Rapidvap vortex evaporator (Uniequip, Germany). The resulting lipid film was hydrated with 0.5 ml of an aqueous solution of calcein (lOOmM calcein, 3.75 eq. NaOH, 50mM NaCl). The lipid suspension was sonicated until the solution became clear using a sonic water bath (Bransonic 221, Branson Ultrasonics Corp., USA). Five cycles of freeze-thaw were performed before liposomes were extruded by 4 passages through 200 nm pore diameter polycarbonate membranes (Nuclepore, Costar, Mass., USA). Free calcein was removed from calcein encapsulated into liposomes by gel exclusion chromatography using a Sephadex G-50 column (3 cm×14 cm) and a 200 mM NaCl, 25 mM HEPES, pH 7.3 solution as the elution buffer. The final lipid concentration was determined by a phosphorus assay (Bartlett, 1959, J. Biol. Chem. 234, 466-469). Liposomes' diameter was determined by dynamic laser light scattering using a Coulter N4 Plus submicron particle sizer (Coultronics France S. A, France). Measurements were performed within a 3 nm-10000 nm size window with a fixed 90° scattered light angle.
The liposome leakage assay was carried out as described in Planck et al. (1994, J. Biol. Chem. 269, 12918-12924). The liposome stock solution was diluted to a lipid concentration of 45 μM in 1.8× assay buffer (360 mM NaCl, 36 mM sodium citrate, pH 5 and pH 7). A 1:5 serial dilution of the tested peptide was carried out in a 96-well microtiter plate by transferring 20 μl of the peptide solution from one well to the next well and diluting with 80 μl H2O. 100 μl of the liposome solution was added in each well (final lipid concentration: 25 μM) and, after 30 min at room temperature, was assayed for fluorescence at 535 nm (excitation: 485 nm) on a microtiter plate fluorescence spectrometer (WALLAC, 1420 multilabel counter Victor). These conditions are appropriate to analyze fluorescein and as close as possible to the appropriate excitation/ emission profile of calcein (495 nm /515 nm). The value for 100% leakage was obtained by addition of 1 μl of a 10% Triton X-100 solution. Leakage activity was plotted against peptide concentration.
Liposome leakage activities were analyzed on liposomes consisting of POPC and cholesterol at a molar ratio of 3:2 (mol/mol).
Complexes of ppTG1 with plasmid DNA pTG11236 were tested for liposome leakage activity on POPC/chol 3:2 liposomes.
The series of ppTG1 derivatives as they are listed in Materials and Methods was tested for liposome leakage activity on POPC/chol 3:2 liposomes at pH7.

HeLa cells = experiment: Transfection in vitro, luciferase plasmid pTG11236; type: cell-based; conditions: for transfection / gene transfer efficiency in vitro, in words: HeLa cells, 50 ng pTG11236, increasing charge ratios, day 1
Method: Cells were plated on 24 well plates at a density of 4×10^4 (293-EBNA ) or 7×10^4 (HeLa, Renca) cells/well in DMEM supplemented with 10% FCS. The next day, the medium was replaced by 200 μl serum-free DMEM and plasmid (pTG11056 or pTG11236)/peptide complexes or plasmid/peptide/lipid complexes were prepared in 30 μl 0.9% NaCl or 5% glucose. After 20 min at room temperature these complexes were added to the cells which were then incubated for 2-3 h at 37° C. and 5% CO2 before 1 ml serum-containing DMEM was added. Approximately 20-hours later, cells were lysed by addition of 100 μl 1× Promega lysis buffer, 20 μl of the lysates were analysed for luciferase activity. Proteins were quantified with the bicinchonic acid (BCA) colorimetric method (Smith, Anal. Biochem. 150 (1985), 76-85).
In another experiment, 7×10^4 HeLa cells, seeded on 24-well plates the day before transfection, were transfected with 0.5 μg or 0.05 μg pTG11236, complexed with Lipofectin or ppTG1. The plasmid/peptide complexes were prepared in 30 μl of 5% glucose or 0.9% NaCl and added to the cells (200 μl serum-free medium) after 20 min at room temperature. Serum-containing medium was added after 3 h, the cells were harvested the next day.
A comparison of the effect on transfection efficiency of ppTG1 and JTS-1-K13 was carried out in HeLa cells. Complexes of 0.5 μg or 0.05 μg pTG11236 were formed with increasing amounts the respective peptide.
A comparison of ppTG1 and KALA was carried out in HeLa and CHO cells. 5×10^4 cells were seeded on 24 well plates. The next day, cells were transfected with 500 ng and 50 ng of pTG11236, complexed with ppTG1 or KALA in 30 μl 0.9% NaCl. The charge ratio +/− varied from 1, 2, 3, 4, 7 to 10. Cells were harvested 20 h after transfection and lysis was obtained in 100 μl Promega lysis buffer. Luciferase activity and total protein concentrations in 20 μl were determined.
HeLa cells were seeded at a density of 6×10^4 cells on 24 well plates. The next day, cells were incubated with 200 μl serum-free medium, 30 μl of plasmid (50 ng)/peptide/lipid mixtures were added and incubated for 3 h at 37° C. in 5% CO2. 1 ml of DMEM+10% FCS was then added. The next day, the medium was removed and cells were washed with 500 μl of PBS and subsequently treated with 100 μl of Promega lysis buffer. Plates were stored at −80° C. until luciferase activity was measured of 20 μl of the cell lysate. The protein assay was performed using the Pierce BCA kit.
JTS1 was dissolved to 1 mg/ml in 1 mM NaOH and mixed with DNA diluted in 5% glucose. ppTG1 was then added to this solution. The pcTG90/DOPE ppTG1 mixtures were prepared as described in Example 6. Transfection assays were performed on HeLa cells with 50 ng of plasmid as described in Example 6.
The series of ppTG1 derivatives listed in Material and Methods were tested for their gene transfer efficiencies in Hela cells. 6×10^4 cells were transfected with 50 ng pTG11236 complexed with increasing amounts of peptide. Luciferase activity was analyzed day 1 after transfection. The results are shown in FIG. 10B (ppTG20, ppTG21), FIG. 10C(ppTG25, ppTG26, ppTG27), FIG. 10D (ppTG28 to ppTG33), FIG. 10E (PEG-ppTG1 and PEG-ppTG20), FIG. 10F (ppTG22 to ppTG24) and FIG. 10G (ppTG20-D).

[2] = pH 5 vs pH 7; cited from earlier work
plasmid pTG11236 = experiment: Gel retardation assay (DNA binding)
Method: 3μg of the plasmid pTG11236 were incubated with increasing amounts of the respective peptide in a final volume of 30 μl with 0.9% NaCl. After 20 min of incubation at room temperature, 6 μl 5× loading buffer (glycerol and bromphenol blue in TAE buffer) were added and 10 μl of these solutions were analyzed on a 1% agarose gel in the presence of ethidium bromide.
The ability of ppTG1 peptide to complex DNA was analyzed by gel retardation assays. […] After 20 minutes incubation at room temperature, loading buffer was added and 10 μl of the resulting solution were analyzed on a 1% agarose gel.
ppTG1 derivatives as they are indicated in Materials and Methods, were tested for their capacity to bind plasmid DNA by gel retardation assays.

B6SJL mice = conditions: for gene transfer efficiency in the lung, in words: i.v., 50 or 60 μg pTG11236, day 1
Method: Indicated amounts of the luciferase expression plasmid pTG11236 were mixed with ppTG1 and /or pcTG90/DOPE. The resulting formulations were injected intramuscularly(30 μl), intravenously(250 μl) into mice or intratumorally (Renca tumors, 100 μgl). Muscles, tumors or organs were recovered at the indicated points of time, macerated and tested for luciferase activity with the luciferase assay kit from Promega.
60 μg or 30 μg of the plasmid pTG11236 were mixed with peptide ppTG1 and/or with a pcTG90/DOPE 1:2 mixture in 250 μl 5% glucose. After 20 min incubation at room temperature, the complexes were intravenously injected into B6SJL mice. Mice were sacrificed at day 1. The lungs were recovered, total protein was extracted and luciferase activity was analysed.
The potential of gene transfer with mono-component peptide vectors was investigated in vivo. Fifty or sixty μg of the luciferase expression plasmid pTG11236 were complexed with pcTG90/DOPE (1:2) [+/−] 10 in 250 μl 5% glucose (Meyer et al. 2000). The resulting lipoplex vector served as reference for gene transfer studies with pTG11236 complexed with ppTG1, ppTG20 and ppTG32 in 250 μl 5% glucose. Five mice per group were intravenously injected, the animals were sacrificed at day 1 after injection. Lungs were tested for luciferase activity.

CGLFKALLKLLKSLWKLLLKA [ppTG23]
liposome leakage activity, in words ([1]; pH7): slightly reduced membrane destruction

CGLFKALLKLLKSLWKLLLKAC (cysteine pairing not given here) [ppTG24]
liposome leakage activity, in words ([1]; pH7): slightly reduced membrane destruction

GIFKAIIKIIKSIWKIIIKA [ppTG30]
transfection / gene transfer efficiency in vitro, in words (HeLa cells): diminished gene transfer efficiency in vitro; also recorded: reduced the efficiency of gene transfer

GIFRAIIRIIRSIWRIIIRA [ppTG31]
transfection / gene transfer efficiency in vitro, in words (HeLa cells): diminished gene transfer efficiency in vitro; also recorded: reduced the efficiency of gene transfer | liposome leakage activity, in words ([1]; pH7): slightly reduced liposome leakage activity

GLFEALLELLESLWELLLEA [reference compound]
lysis of calcein containing phosphatidylcholine liposomes [2]: capable of lysing calcein containing phosphatidylcholine liposomes at pH 5, more efficiently than at a pH 7 | retardation of plasmid DNA (plasmid pTG11236; 3 μg pTG11236 and 0.1 μg to 10 μg peptide): not observed | liposome leakage activity, in words ([1]; pH5): high lysis activity | liposome leakage activity, in words ([1]; pH7): reduced

GLFHALLHLLHSLWHLLLHA
transfection / gene transfer efficiency in vitro, in words (HeLa cells): strongly reduced | DNA binding, in words (plasmid pTG11236; pH5): binds plasmid DNA at pH5; also recorded: can bind DNA at pH5 | liposome leakage activity, in words ([1]; pH7): comparable to ppTG1

GLFKKLLKLLKKLWKLLLKA [ppTG28]
transfection / gene transfer efficiency in vitro, in words (HeLa cells): comparable to ppTG1 and ppTG20; also recorded: did not change transfection efficiencies | liposome leakage activity, in words ([1]; pH7): slightly reduced liposome leakage activity

GLFRALLRLLRSLWRLLLRA [ppTG20]
toxicity in vivo, in words (B6SJL mice; i.v. injection of peptide/pTG11236 complexes): less toxic than ppTG1

GLFRRLLRLLRRLWRLLLRA [ppTG29]
transfection / gene transfer efficiency in vitro, in words (HeLa cells): comparable to ppTG1 and ppTG20; also recorded: did not change transfection efficiencies | liposome leakage activity, in words ([1]; pH7): slightly reduced liposome leakage activity

GVFKAVVKVVKSVWKVVVKA [ppTG32]
transfection / gene transfer efficiency in vitro, in words (HeLa cells): diminished gene transfer efficiency in vitro | gene transfer efficiency in the lung, in words (B6SJL mice): drastically reduced gene transfer efficiency; also recorded: did not lead to detectable reporter gene expression | liposome leakage activity, in words ([1]; pH7): diminished liposome leakage activity; also recorded: significantly reduced liposome leakage activity

GVFRAVVRVVRSVWRVVVRA [ppTG33]
transfection / gene transfer efficiency in vitro, in words (HeLa cells): diminished gene transfer efficiency in vitro | liposome leakage activity, in words ([1]; pH7): diminished liposome leakage activity; also recorded: significantly reduced liposome leakage activity

Gly-Leu-Phe-Arg-Ala-Leu-Leu-Arg-Leu-Leu-Arg-Ser-Leu-Trp-Arg-Leu-Leu-Leu-Arg-Ala (GLFRALLRLLRSLWRLLLRA; also: D-amino acids, places not given here) [ppTG20-D]
transfection / gene transfer efficiency in vitro, in words (HeLa cells): retained; also recorded: as efficient as ppTG1 | liposome leakage activity, in words ([1]; pH7): retained

Gly-Leu-Phe-Glu-Ala-Leu-Leu-Glu-Leu-Leu-Glu-Ser-Leu-Trp-Glu-Leu-Leu-Leu-Glu-Ala-Cys-Cys-Tyr-Lys-Ala-Lys-Lys-Lys-Lys-Lys-Lys-Lys-Lys--Trp-Lys-Lys-Lys-Lys-Gln-Ser (GLFEALLELLESLWELLLEACCYKAKKKKKKKKWKKKKQS; disulfide 21-22) [JTS-1-K13, reference compound]
transfection (HeLa cells; 0.05 μg plasmid DNA, FIG. 4): remains low | luciferase expression (HeLa cells; 0.5 μg pTG11236 complexed with 1.5 μg peptide): high level of luciferase expression | gene transfer efficiency in the lung, in words (B6SJL mice): low | liposome leakage activity, in words ([1]; pH5): low level release | liposome leakage activity, in words ([1]; pH7): impeded in calcein release

WEAKLAKALAKALAKHLAKALAKALKACEA [reference compound]
gene transfer at optimal charge ratio lower than for ppTG1 (HeLa cells; HeLa, 500 ng pTG11236): 4 fold | gene transfer efficiency in the lung, in words (B6SJL mice): undetectable; also recorded: inefficient | liposome leakage activity, in words ([1]; pH5): could not liberate calcein | liposome leakage activity, in words ([1]; pH7): could not liberate calcein
